Assay results from PubChem BioAssay AID2060489 (Molecular Pharmacology Branch, DTP, NCI, 2025).
Values joined by “and” are separate entries in the source; they are usually repeats but may differ in a detail not shown here. Identical values can stand only once. Values belong to the compound of their own block, whether it stands above or below them.

System: 922993-354-T-J3-PDC complex spheroids, viability
Test: Anticancer human tumor 922993-354-T-J3-PDC patient-derived endometrial carcinoma cell line growth inhibition [GQUAD]
Conditions: for viability, T/C: stronger effect = lower value
From the text: DNA G-quadruplex Stabilizer Agents in Combinations in Complex Spheroids
A high-throughput screen of multi-cell type tumor spheroids was designed to identify active combinations of DNA G-quadruplex stabilizer agents and targeted small molecules. Complex spheroids include a stromal component modeled by human endothelial cells (HUVEC) and fibroblasts modeled by human mesenchymal stem cells (MSCs). The concentration ranges selected for each drug and investigational agent were based upon clinically achievable concentrations if the clinical Cmax of the agent was known.
Compounds. The drugs and investigational agents: pidnarulex (CX-5461; NSC782164), APTO-253 (NSC789042), BRACO-19 (NSC847499), peposertib (NSC802822), ceralasertib (NSC780249), elimusertib (NSC800525), camonsertib (NSC841442), AZD-1390 (NSC803789), olaparib (NSC753686), talazoparib (NSC767125), ART-558 (NSC835418), sotorasib (NSC818433), MRTX-1133 (NSC836407), SN-38 (NSC673596), topotecan (NSC609699), etoposide (NSC141540), doxorubicin (NSC123127), gemcitabine (NSC613327), 5-fluorouracil (NSC19893), paclitaxel (NSC125973), vemurafenib (NSC761431), panobinostat (NSC761190), R-306465 (JNJ-16241199; NSC773264), adavosertib (NSC754352), TP-3654 (NSC805149), carboplatin (NSC241240), KSQ-4279 (NSC840948), and staurosporine (NSC755774) were obtained from the National Cancer Institute (NCI) Developmental Therapeutics Program Chemical Repository (34). The FDA-approved anticancer drug set is available from the NCI Developmental Therapeutics Program. […] The stock solutions were prepared in dimethyl sulfoxide (DMSO, Sigma-Aldrich, St. Louis, MO, cat. D2650) at 800-fold the tested concentration and stored at -70 degrees C prior to their use. All drugs and investigational agents were tested over a range starting from a high concentration at or near the clinical Cmax and decreasing in half-log increments. If the clinical Cmax for an agent had not been determined, the highest concentration tested was 10 microM.
2.3 Cell Culture. All cells were maintained in an incubator at 37 degrees C and 5% CO2 with 95% humidity. The PDC lines were cultured according to standard operating procedures established by the NCI PDMR. All PDCs were thawed and cultured in Matrigel-coated flasks prepared with a working solution of 1X Ham's F-12 nutrient mix, without supplementation (Invitrogen, cat. 11765054), 100 U/mL penicillin-streptomycin (Invitrogen, cat. 15140122), and 2.5% Matrigel (Corning Inc., cat. 354248) for the first three passages. The 857933-349-R-J2-PDC line was cultured in 6C/Colon 1B media, which includes advanced DMEM/F-12 (Thermo Fisher Scientific, cat. 12634028), 10 mM HEPES (Thermo Fisher Scientific, cat. 15630080), 1X GlutaMAX supplement (Thermo Fisher Scientific, cat. 35050061), 0.1 mg/mL primocin (InvivoGen, cat. ant-pm-2), 10% defined fetal bovine serum, heat inactivated (HyClone Laboratories Inc., cat. SH30070.03HI), 50% L-WRN conditioned media (ATCC, cat. CRL-3276), 1.25 mM N-Acetyl-L-cysteine (Sigma-Aldrich, cat. A9165), 10 mM nicotinamide (Sigma-Aldrich, cat. N0636), 1X B-27 supplement (Thermo Fisher Scientific, cat. 17504044), 1X N-2 supplement (Thermo Fisher Scientific, cat. 17502048), 10 microM Y-27632 dihydrochloride (Tocris Bioscience, cat. 1254), and 50 ng/mL human EGF recombinant protein (Thermo Fisher Scientific, cat. PHG0311). The 485176-168-R4-J1-PDC line was cultured in Panc media, which includes all 6C/Colon 1B media components plus 100 ng/mL human FGF-10 (Thermo Fisher Scientific, cat. 100-26), 500 nM SB-431542 (Selleckchem, cat. S1067), and gastrin (Tocris, cat. 3006).
[…]
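Note: spheroids exposed to compounds for seven days.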
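Throughout, for viability, T/C: 100% = DMSO vehicle control viability.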

IC50 (compound alone, run of 03/26/2024): > 10 µM
Structure (SMILES): CN(C)c1ccc(Nc2c3ccc(NC(=O)CCN4CCCC4)cc3nc3cc(NC(=O)CCN4CCCC4)ccc23)cc1
viability, T/C (compound 0.316 µM): 99.4% [middle of 12 runs]

IC50 (curve of compound): > 10 µM
Structure (SMILES): C=CC(=O)N1CCN(c2nc(=O)n(-c3c(C)ccnc3C(C)C)c3nc(-c4c(O)cccc4F)c(F)cc23)C(C)C1 (stereo not given)
viability, T/C (compound 0.0316 µM): 101% and 110% and 99.2%
viability, T/C (compound 0.1 µM): 88.4% and 88.3% and 112%
viability, T/C (compound 0.316 µM): 102% and 124% and 99.9%
viability, T/C (compound 1 µM): 91.4% and 97.3% and 95.3%
viability, T/C (compound 3.16 µM): 93.3% and 95.4% and 128%
viability, T/C (compound 10 µM): 97.9% and 97.8% and 89.3%

The remaining lines, values behind:

Structure (SMILES): O=C(c1cc(Cc2n[nH]c(=O)c3ccccc23)ccc1F)N1CCN(C(=O)C2CC2)CC1 + CN(C)c1ccc(Nc2c3ccc(NC(=O)CCN4CCCC4)cc3nc3cc(NC(=O)CCN4CCCC4)ccc23)cc1
IC50 (curve of first compound, second compound 0.0316 µM): > 10 µM
IC50 (curve of first compound, second compound 0.1 µM): > 10 µM
IC50 (curve of first compound, second compound 0.316 µM): > 10 µM
IC50 (curve of first compound, second compound 1 µM): > 10 µM
IC50 (curve of first compound, second compound 3.16 µM): > 10 µM
IC50 (curve of first compound, second compound 10 µM): > 10 µM
viability, T/C (second compound 0.0316 µM, first compound 0.0316 µM): 103%
viability, T/C (second compound 0.0316 µM, first compound 0.1 µM): 105%
viability, T/C (second compound 0.0316 µM, first compound 0.316 µM): 94.2%
viability, T/C (second compound 0.0316 µM, first compound 1 µM): 86.5%
viability, T/C (second compound 0.0316 µM, first compound 3.16 µM): 89.8%
viability, T/C (second compound 0.0316 µM, first compound 10 µM): 106%
viability, T/C (second compound 0.1 µM, first compound 0.0316 µM): 115%
viability, T/C (second compound 0.1 µM, first compound 0.1 µM): 81.9%
viability, T/C (second compound 0.1 µM, first compound 0.316 µM): 91.9%
viability, T/C (second compound 0.1 µM, first compound 1 µM): 86%
viability, T/C (second compound 0.1 µM, first compound 3.16 µM): 94.9%
viability, T/C (second compound 0.1 µM, first compound 10 µM): 106%
viability, T/C (second compound 0.316 µM, first compound 0.0316 µM): 89.5%
viability, T/C (second compound 0.316 µM, first compound 0.1 µM): 84.3%
viability, T/C (second compound 0.316 µM, first compound 0.316 µM): 115%
viability, T/C (second compound 0.316 µM, first compound 1 µM): 87.3%
viability, T/C (second compound 0.316 µM, first compound 3.16 µM): 91.2%
viability, T/C (second compound 0.316 µM, first compound 10 µM): 78.5%
viability, T/C (second compound 1 µM, first compound 0.0316 µM): 83.7%
viability, T/C (second compound 1 µM, first compound 0.1 µM): 86.5%
viability, T/C (second compound 1 µM, first compound 0.316 µM): 87.8%
viability, T/C (second compound 1 µM, first compound 1 µM): 74.7%
viability, T/C (second compound 1 µM, first compound 3.16 µM): 97.5%
viability, T/C (second compound 1 µM, first compound 10 µM): 107%
viability, T/C (second compound 3.16 µM, first compound 0.0316 µM): 84.2%
viability, T/C (second compound 3.16 µM, first compound 0.1 µM): 105%
viability, T/C (second compound 3.16 µM, first compound 0.316 µM): 110%
viability, T/C (second compound 3.16 µM, first compound 1 µM): 75.5%
viability, T/C (second compound 3.16 µM, first compound 3.16 µM): 120%
viability, T/C (second compound 3.16 µM, first compound 10 µM): 93.7%
viability, T/C (second compound 10 µM, first compound 0.0316 µM): 110%
viability, T/C (second compound 10 µM, first compound 0.1 µM): 128%
viability, T/C (second compound 10 µM, first compound 0.316 µM): 109%
viability, T/C (second compound 10 µM, first compound 1 µM): 99.4%
viability, T/C (second compound 10 µM, first compound 3.16 µM): 133%
viability, T/C (second compound 10 µM, first compound 10 µM): 132%

Structure (SMILES): COc1ncnc(C2CC2)c1-c1ncc2cnn(Cc3ccc(-c4nc(C(F)(F)F)cn4C(C)C)cc3)c2n1
viability, T/C (compound 0.0316 µM): 91.6% and 114% and 86.8%
viability, T/C (compound 0.1 µM): 87.8% and 92.6% and 89.9%
viability, T/C (compound 0.316 µM): 101% and 104% and 102%
viability, T/C (compound 1 µM): 87.8% and 99.7% and 99.6%
viability, T/C (compound 3.16 µM): 110% and 85.1% and 69.7%
viability, T/C (compound 10 µM): 95.9% and 87.4% and 81.4%
IC50 (curve of compound): > 10 µM

Structure (SMILES): CC1COCCN1c1cc(-c2ccnn2C)c2ccnc(-c3ccn[nH]3)c2n1 (stereo not given)
viability, T/C (compound 0.0316 µM): 83.5% and 95% and 87.4%
viability, T/C (compound 0.1 µM): 71.5% and 63.7% and 70.4%
viability, T/C (compound 0.316 µM): 48.3% and 41.6% and 62.9%
viability, T/C (compound 1 µM): 22.1% and 12.8% and 28.7%
viability, T/C (compound 3.16 µM): 19.6% and 22% and 23.4%
viability, T/C (compound 10 µM): 16.8% and 19.2% and 17.7%
IC50 (curve of compound): 0.273 µM and 0.184 µM and 0.451 µM
